Experimental findings from paper PMC9548378 (Science translational medicine, 2022) are described below.

The target in this assay is T1, KDM4B (Homo sapiens, UniProt O94953).
T1 sequence (O94953 1-366): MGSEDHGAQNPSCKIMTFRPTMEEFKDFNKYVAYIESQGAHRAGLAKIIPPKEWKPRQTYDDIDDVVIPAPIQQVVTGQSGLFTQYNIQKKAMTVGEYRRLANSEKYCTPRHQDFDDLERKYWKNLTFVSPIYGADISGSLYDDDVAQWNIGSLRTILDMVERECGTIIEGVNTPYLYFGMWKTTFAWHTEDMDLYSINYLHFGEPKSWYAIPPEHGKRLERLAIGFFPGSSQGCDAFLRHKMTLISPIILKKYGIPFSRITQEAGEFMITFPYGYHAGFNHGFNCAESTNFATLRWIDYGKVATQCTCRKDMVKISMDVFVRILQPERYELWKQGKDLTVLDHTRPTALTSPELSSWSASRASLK
Nature of the assay: co-crystal structure. It is filed as binding.

One may read the Kd as the equilibrium constant for the complex coming apart. Lower therefore signals a tighter complex. Turning to `CN(c1ccccc1)c1ccc2c(c1)CCC[C@H]2CNc1cnccc1C(=O)O` [QC6352], the Kd was found to be 105 nM.
